Experimental data: patent US8329222B1, “Magnetic nanomedicine for tumor suppression and therapy” (priority 2011, dated 2012)

Experiments:
[1] = test system: bladder tumor cells MGH-U1; test: Fluorescence microscopy of cell entry after 4 hours; type: cell-based, human; settings: reacted 4 hours, fluorescent microscope photos
Protocol: Add 2 mL of a mixture liquid containing 20,000 bladder tumor cells MGH-U1 to a 3.5 cm diameter cultivation plate. Place the cultivation plate in a humidified incubator having 5% CO2 in a temperature of 37° C. to enable adherent growth of the cells. Twenty-four hours later, add to the cultivation plate, 100 μL of RPMI1640 medium containing EPI, EPI/SPAnH/MNPs magnetic nanomedicine, DOX, and DOX/SPAnH/MNPs magnetic nanomedicine to react for 4 hours, then flush it with 1 mL of Hanks' balance slat solution (HBSS).

[2] = test system: human bladder tumor cells (MGH-U1); test: XTT growth suppression test on bladder tumor cells; type: cell-based; settings: cultivated with MGH-U1 for 27 hours, no magnetic field, read-out: cell growth inhibit efficiency
Protocol: Cell Cultivation: Place 150 μL of a mixture liquid containing 10,000 human bladder tumor cells (MGH-U1) into each well of 96-well culture plate. Place the culture plate in a humidified incubator in a temperature of 37° C. and with 5% CO2 to enable adherent growth of the cells.
Agent Addition: 24 hours later, mix separately MNPs (concentration 600 μg/mL) EPI (concentrations 2, 5, 10 μM), and EPI/SPAnH/MNPs magnetic nanomedicine (concentrations 2, 5, 10 μM) with a RPMI1640 medium to form mixed solutions. Add respectively 50 μL of the mixed solutions to well, and then place the culture plate in a humidified incubator having 5% CO2 for 2, 4, 6, 10, and 27 hours.
Cell Counting: Remove RPMI1640 medium in the well and add 120 μL of an XTT reaction liquid (2,3-Bis(2-methoxy-4-nitro-5-sulfophenyl)-2H-tetrazolium-5-carboxanilide inner salt) to the wells. Use an ELISA reader (BIO-TEK, model EL 808) to measure the OD (Optical Density) values of each cell at a wavelength of 490 nm to determine the toxicity of SPAnH/MNPs magnetic nanocomposite and the cell-killing rate of EPI/SPAnH/MNPs magnetic nanomedicines to the bladder tumor cells.
Cell Cultivation: Place 150 μL of a mixture liquid containing 10,000 human bladder tumor cells (MGH-U1) into each well of 96-well culture plate. […]

SMILES | entry into bladder tumor cell MGH-U1 [1] | inhibition at 10 µM [2]
COc1cccc2c1C(=O)c1c(O)c3c(c(O)c1C2=O)C[C@@](O)(C(=O)CO)C[C@@H]3O[C@H]1C[C@H](N)[C@H](O)[C@H](C)O1 [DOX, Doxorubicin] | do enter into the bladder tumor cell MGH-U1 | 66.2%
COc1cccc2c1C(=O)c1c(O)c3c(c(O)c1C2=O)C[C@@](O)(C(=O)CO)C[C@@H]3O[C@H]1C[C@H](N)[C@@H](O)[C@H](C)O1 [EPI, Epirubicin] | do enter into the bladder tumor cell MGH-U1 | 64.3%
